Experimental findings from patent publication US7772270B2, “Imino acid derivatives as inhibitors of matrix metalloproteinases” (sanofi-aventis Deutschland GmbH, priority 2003, dated 2010) are described below.

Test [1] concerns the target T1, catalytic domain of human stromelysin (MMP-3) (Homo sapiens, UniProt P08254).
T1 construct: enzymatic activity of the catalytic domain of human stromelysin (MMP-3); made in house
The test is described as follows: Enzymatic activity of the catalytic domain of human stromelysin (MMP-3), fluorogenic substrate. It counts as biochemical. The following applies: 15 min preincubation, pH 7.5, fluorescence 328/393 nm. The method, then:
(§1) The two enzymes, i.e., stromelysin (MMP-3) and neutrophilic collagenase (MMP-8), were prepared as described in Ye et al. (Biochemistry; 31 (1992) pages 11231-11235). For measuring enzymatic activity or the effect of an enzyme inhibitor, 70 μl of buffer solution and 10 μl of enzyme solution are incubated, for 15 minutes and at a physiological pH, with 10 μl of a 10% (v/v) aqueous solution of dimethyl sulfoxide containing the enzyme inhibitor, where appropriate. After 10 μl of a 10% (v/v) aqueous solution of dimethyl sulfoxide containing 1 mmol of the substrate/l have been added, the enzyme reaction is monitored by fluorescence spectroscopy (328 nm (ex)/393 nm(em)).
(§2) The enzyme activity is recorded as increase in […]/minute. The IC50 values listed in table 2 are determined as the inhibitor concentrations that in each case lead to 50% inhibition of the enzyme.
(§3) The buffer solution contains 0.05% Brij (Sigma, Deisenhofen, Germany) and also 0.1 mol of Tris/HCl/l, 0.1 mol of NaCl/l, 0.01 mol of CaCl2/l and 0.1 mol of piperazine-N,N′-bis[2-ethanesulfonic acid]/l (pH=7.5). The enzyme solution contains 5 μg/ml of one of the enzyme domains prepared as described in Ye et al. The substrate solution contains 1 mmol of the fluorogenic substrate (7-methoxycoumarin-4-yl)acetyl-Pro-Leu-Gly-Leu-3-(2′,4′-dinitrophenyl)-L-2,3-diaminopropionyl-Ala-Arg-NH2/A (Bachem, Heidelberg, Germany).

Test [2] addresses T2, catalytic domain of human neutrophilic collagenase (MMP-8) (Homo sapiens, UniProt P22894).
T2 construct: catalytic domain of human stromelysin (MMP-3) and neutrophilic collagenase (MMP-8); made in house
Briefly: Enzymatic activity of the catalytic domain of human neutrophilic collagenase (MMP-8), fluorogenic substrate. It counts as biochemical. As to conditions: 15 min preincubation, pH 7.5, fluorescence 328/393 nm. The method, then:
as §1, §2, §3

T2 sequence (P22894 100-262 limits assumed): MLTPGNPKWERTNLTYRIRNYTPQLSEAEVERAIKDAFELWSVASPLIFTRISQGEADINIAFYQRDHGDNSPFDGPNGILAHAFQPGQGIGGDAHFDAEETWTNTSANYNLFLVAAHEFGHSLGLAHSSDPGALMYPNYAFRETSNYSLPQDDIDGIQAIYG
T1 sequence (P08254 100-272 limits assumed): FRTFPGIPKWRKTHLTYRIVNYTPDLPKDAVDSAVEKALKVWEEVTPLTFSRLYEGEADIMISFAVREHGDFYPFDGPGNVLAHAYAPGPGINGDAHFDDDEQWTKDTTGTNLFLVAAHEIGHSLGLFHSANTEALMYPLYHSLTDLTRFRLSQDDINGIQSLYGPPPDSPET

The IC50 is the concentration at which inhibition is half-maximal. The low end stands for greater potency, the high end for weaker potency. On to `O=C(O)[C@H]1C[C@H]2CCC[C@H]2N1S(=O)(=O)c1ccc(-c2ccc(N3CCN(c4ccc(F)cc4)CC3)cc2)cc1` [Example 29], for which the IC50 in test [1] was greater than 10000 nM; in test [2] it was 10000 nM.

For `O=C(NO)[C@H]1C[C@H]2CCC[C@H]2N1S(=O)(=O)c1ccc(-c2ccccc2)cc1` [Example 64], the IC50 in test [1] was found to be 100 nM; in test [2], 20 nM.

As for `O=C(O)[C@H]1C[C@H]2CCC[C@H]2N1S(=O)(=O)c1ccc(-c2ccc(N3CCCC3)cc2)cc1` [Example 21], the results for the IC50 in test [1] and in test [2] were 160 nM and 4 nM, respectively.

As for `O=C(O)C1C[C@H]2CCC[C@H]2N1S(=O)(=O)CCc1ccc(-c2ccc(Br)cc2)cc1` (stereo partly shown) [Example 13], the IC50 in test [1] and in test [2] was 200 nM each time.

In the case of `O=C(NO)[C@H]1C[C@H]2CCC[C@H]2N1S(=O)(=O)/C=C/c1ccccc1` [Example 57], the IC50 in test [1] was found to be 330 nM; in test [2], 320 nM.

As for `O=C(NO)C1C[C@H]2CCC[C@H]2N1S(=O)(=O)c1ccc(I)cc1` (single isomer, unassigned) [Example 65], the values for the IC50 in test [1] and in test [2] were 300 nM and 100 nM, respectively.

For the compound `O=C(NO)[C@H]1C[C@H]2CCC[C@H]2N1S(=O)(=O)c1ccc(-c2ccc([N+](=O)[O-])cc2)cc1` [Example 61], the results for the IC50 in test [1] and in test [2] were 22 nM and 3 nM, respectively.

`O=C(NO)C1C[C@H]2CCC[C@H]2N1S(=O)(=O)c1ccc(-c2ccc(N3CCN(c4ccc(F)cc4)CC3)cc2)cc1` (single isomer, unassigned) [Example 63]: the IC50 in test [1] turned out to be 200 nM; in test [2], 3700 nM.
